Experimental data as given in patent publication US20160052926A1, “NOVEL PYRIMIDINE AND PYRIDINE COMPOUNDS AND USAGE THEREOF” (HUTCHISON MEDIPHARMA LIMITED, priority 2013, published 2016).

How the values were obtained:
Recombinant human FGFR1 = Recombinant human FGFR1 (Homo sapiens, UniProt P11362); assay: Transcreener Kinase Assay of FGFR1; assay type: biochemical; conditions: read-out: FGFR1 (FP) IC50
Procedure: Transcreener Kinase Assay of FGFR1
(§1) Prepare Solution • Compounds were solved in DMSO and were diluted with assay buffer to 5 folds of final concentration keeping the DMSO concentration at 5%. Further dilution are needed to make final concentrations are at 1, 0.33, 0.11, 0.037, 0.012, 0.004, 0.0014, 0.0005 μM; (the final concentration of DMSO is 1%). • Enzyme/Substrate stock Preparation: Recombinant human FGFR1 and Poly E4Y are both diluted in assay buffer.
(§2) Enzymatic Reaction • In a 96-well plate, Add 5 μL of compound or control. (positive control: 5 μL of 5% DMSO; negative control: 5 μL of 500 mM EDTA) into desired wells; • Add 10 μL of Enzyme/Substrate stock into each well; • Add 10 μL of ATP Diluents to initiate the enzyme reaction and votex the plate immediately on a plate shaker; • For the wells to make standard curve, add 5 μL of 5% DMSO, 10 μL of assay buffer and 10 μL of ATP standard curve stock. • Incubate the plate for 45 min at 28[…] on a plate shaker in a low speed.
Excitation wavelength: 610 nm, Emission wavelength: 670 nm.
(§3) • [ADP] in Compound well represents the ADP concentration in compound well. • [ADP] in Positive control well represents the ADP concentration in 5% DMSO well • Conversion of mP value to ADP concentration is calculated based on the formula which determined by standard curve. And mP value is measured by following the instruction provided by BellBrook Labs. (www.bellbrooklabs.com). 6. IC50: calculated using XL-Fit 2.0 software.

Recombinant human FGFR2 = Recombinant human FGFR2 (Homo sapiens, UniProt P21802); assay: Transcreener Kinase Assay of FGFR2; assay type: biochemical; conditions: read-out: FGFR2 (FP) IC50
Chain of Recombinant human FGFR2 (P21802 22-821): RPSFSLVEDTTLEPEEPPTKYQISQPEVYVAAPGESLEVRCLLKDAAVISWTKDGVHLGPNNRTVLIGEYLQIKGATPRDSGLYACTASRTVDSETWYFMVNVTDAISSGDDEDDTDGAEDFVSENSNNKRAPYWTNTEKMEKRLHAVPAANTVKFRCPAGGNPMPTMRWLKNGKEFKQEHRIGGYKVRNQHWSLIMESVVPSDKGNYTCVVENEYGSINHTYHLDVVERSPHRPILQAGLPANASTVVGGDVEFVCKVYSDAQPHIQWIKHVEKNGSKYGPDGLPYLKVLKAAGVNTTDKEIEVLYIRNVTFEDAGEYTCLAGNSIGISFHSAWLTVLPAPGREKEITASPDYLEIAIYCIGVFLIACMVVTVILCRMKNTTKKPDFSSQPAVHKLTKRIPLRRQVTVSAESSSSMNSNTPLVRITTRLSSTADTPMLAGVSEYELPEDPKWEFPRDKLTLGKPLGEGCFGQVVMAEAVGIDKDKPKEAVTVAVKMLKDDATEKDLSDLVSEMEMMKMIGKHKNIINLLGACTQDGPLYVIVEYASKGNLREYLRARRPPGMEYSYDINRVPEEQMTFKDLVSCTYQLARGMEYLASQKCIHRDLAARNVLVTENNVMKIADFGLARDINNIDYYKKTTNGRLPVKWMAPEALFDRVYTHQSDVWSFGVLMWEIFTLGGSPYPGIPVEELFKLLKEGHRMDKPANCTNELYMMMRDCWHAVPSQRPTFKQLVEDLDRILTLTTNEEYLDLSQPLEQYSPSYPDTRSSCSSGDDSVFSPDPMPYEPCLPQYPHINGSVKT
Procedure: Transcreener Kinase Assay of FGFR2
as §1, with “•” for “Prepare Solution •”, “FGFR2” for “FGFR1”, “buffer. The final concentration is 0.3 ng/μL for FGFR2 and 62.5 ng/μL for Poly E4Y. The mixture is being kept in ice before use; • Prepare ATP Diluents, 10 mM ATP is diluted in assay buffer, the final concentration is 25 μM; • Prepare ADP Diluents: diluted ADP (500 μM) in assay buffer, the final concentration is 25 μM; • Prepare ATP standard curve stock as following:” for “buffer.”
as §2, with “•” for “Enzymatic Reaction •”
• Detection Mix Preparation: The mixture is made by dilution with MilliQ water; as following: ADP Alexa633 tracer (1:100), ADP antibody (1:158), and stop & detect buffer (1:10); • Tracer Only control Preparation: The mixture is made by dilution with MilliQ water; as following: ADP Alexa633 tracer (1:100), and stop & detect buffer (1:10) • No Tracer control Preparation: stop & detect buffer is diluted with MilliQ water; by 10 fold. • Add 25 μL of detection mix, Tracer Only control and No Tracer control into corresponding wells, respectively; • Incubate at 28 °C for 1 h, on a plate shaker in a low speed; • Measure florescence polarization (FP) on TECAN F500. Excitation wavelength: 610 nm, Emission wavelength: 670 nm.
as §3

FGFR3 kinase = FGFR3 kinase (Homo sapiens, UniProt P22607); assay: Z-Lyte Kinase Assay of FGFR3; assay type: biochemical
Chain of FGFR3 kinase (P22607 23-806): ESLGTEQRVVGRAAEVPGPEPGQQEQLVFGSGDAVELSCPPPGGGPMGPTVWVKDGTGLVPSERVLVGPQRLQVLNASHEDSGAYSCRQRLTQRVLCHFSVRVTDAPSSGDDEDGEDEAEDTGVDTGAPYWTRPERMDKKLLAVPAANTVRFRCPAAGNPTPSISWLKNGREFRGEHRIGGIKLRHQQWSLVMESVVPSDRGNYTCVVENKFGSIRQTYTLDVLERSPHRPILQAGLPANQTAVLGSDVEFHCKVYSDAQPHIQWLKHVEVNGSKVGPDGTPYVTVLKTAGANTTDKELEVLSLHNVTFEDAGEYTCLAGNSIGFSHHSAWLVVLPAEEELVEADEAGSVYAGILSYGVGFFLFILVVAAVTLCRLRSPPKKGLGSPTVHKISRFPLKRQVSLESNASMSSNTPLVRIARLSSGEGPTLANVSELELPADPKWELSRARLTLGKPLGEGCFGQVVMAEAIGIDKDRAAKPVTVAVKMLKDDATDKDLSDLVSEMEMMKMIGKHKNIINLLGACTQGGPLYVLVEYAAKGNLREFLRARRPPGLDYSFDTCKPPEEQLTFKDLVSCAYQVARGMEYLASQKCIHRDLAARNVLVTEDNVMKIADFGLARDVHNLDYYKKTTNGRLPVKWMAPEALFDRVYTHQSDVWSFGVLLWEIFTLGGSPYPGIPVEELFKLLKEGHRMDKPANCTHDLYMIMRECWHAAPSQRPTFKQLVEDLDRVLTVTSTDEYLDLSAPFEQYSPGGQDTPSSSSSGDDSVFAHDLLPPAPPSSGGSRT
Procedure: Z-Lyte Kinase Assay of FGFR3
The final concentrations are 1, 0.33, 0.11, 0.037, 0.012, 0.004, 0.0014, 0.00046 μM, and the final concentration of DMSO is 2%. • 3) Kinase/Peptide Mixture (P/K solution): Prepare Kinase/Peptide Mixture by diluting the kinase to 0.7 μg/ml and the Z-LYTE™ Tyr 4 peptide to 4 μM in 1.33× Kinase Buffer. Mix gently by pipetting. • 4) Phospho-peptide Solution (PP solution): Add 0.4 μl of Z-LYTE™ Tyr 4 Phospho-peptide to 99.6 μl of 1.33× Kinase Buffer. • 5) ATP Solution: Prepare ATP Solution by diluting the 10 mM of ATP in 1.33× Kinase Buffer to 300 uM. • 6) Development Solution: Dilute Development Reagent B with Development Buffer as 1:128.
Shake the plate for 30 Sec and centrifuge (1500 rpm, 1 min) • Seal the plate to protect from the light and incubate the plate for 1 hour at RT (25-30[…]) • 2) Development reaction • Add 5 μl of the Development solution to all wells • Shake the plate for 30 Sec and centrifuge (1500 rpm, 1 min) • Seal the plate to protect from the light and incubate the plate for 1 hour at RT (25-30[…]) • 3) Stop and read • Add 5 μl of the Stop reagent to all wells • Shake the plate for 30 Sec and centrifuge (1500 rpm, 1 min) • Measure the value of Coumarin (Ex400 nm, Em445 nm) and fluorescein (Ex400 nm, Em520 nm), respectively.
Inhibition rate(IR)=1−%Photest Cpd/%PhoC2
• determined with add-in software for Microsoft Excel, XLfit™ (version 2.0) from ID Business Solutions (Guildford, UK)

KG-1 = assay: Cellular Proliferation Assay (Cell Counting Kit-8), KG-1; assay type: cell-based; conditions: Homo sapiens, KG1 cells, 72 hours
Procedure: (§4) Cellular Proliferation Assay
(§5) • KG-1 (ATCC Accession No. CCL-246), • SNU-16 (ATCC Accession No. CRL-5974), • RT-112 (ECACC Accession No. 85061106)
(§6) • FGFR related cancer cell proliferation is measured in 96-well plates using Cell Counting Kit-8 (Dojindo CK04-13). • Seed 30000 cells/well of KG1, 5000 cells/well of SNU16, and 1000 cells/well of RT112 in a volume of 100 μL/well in growth media. • After 24 hours, dilute the compound to 10, 3.3, 1.1, 0.37, 0.12, 0.04, 0.013, 0.004 μM, keeping the DMSO concentration at 5%. • Add 10 μL of 8-point compound series to the wells of culturing cells. • Incubate at 37° C. and 5% CO2 for 72 hours • Add 10 μL/well of CCkit8 and incubate at 37° C. and 5% CO2 for an hour • Detect the optical density of each well at 450 nm on Labsystems Multiskan K3.
(§7) • ODcompound well represents the optical density of cells treated with compound. • ODcell well represents the optical density of cells without compounds treatment. (only 0.5% DMSO) • ODcontrol well represents the optical density of culture media background
(§8) The concentration of compound providing 50% of proliferation inhibition was calculated using Excel Fit.

SNU-16 = assay: Cellular Proliferation Assay (Cell Counting Kit-8), SNU-16; assay type: cell-based; conditions: Homo sapiens, SNU-16 cells, 72 hours
Procedure: as §4, §5, §6, §7, §8

Chain of Recombinant human FGFR1 (P11362 22-822): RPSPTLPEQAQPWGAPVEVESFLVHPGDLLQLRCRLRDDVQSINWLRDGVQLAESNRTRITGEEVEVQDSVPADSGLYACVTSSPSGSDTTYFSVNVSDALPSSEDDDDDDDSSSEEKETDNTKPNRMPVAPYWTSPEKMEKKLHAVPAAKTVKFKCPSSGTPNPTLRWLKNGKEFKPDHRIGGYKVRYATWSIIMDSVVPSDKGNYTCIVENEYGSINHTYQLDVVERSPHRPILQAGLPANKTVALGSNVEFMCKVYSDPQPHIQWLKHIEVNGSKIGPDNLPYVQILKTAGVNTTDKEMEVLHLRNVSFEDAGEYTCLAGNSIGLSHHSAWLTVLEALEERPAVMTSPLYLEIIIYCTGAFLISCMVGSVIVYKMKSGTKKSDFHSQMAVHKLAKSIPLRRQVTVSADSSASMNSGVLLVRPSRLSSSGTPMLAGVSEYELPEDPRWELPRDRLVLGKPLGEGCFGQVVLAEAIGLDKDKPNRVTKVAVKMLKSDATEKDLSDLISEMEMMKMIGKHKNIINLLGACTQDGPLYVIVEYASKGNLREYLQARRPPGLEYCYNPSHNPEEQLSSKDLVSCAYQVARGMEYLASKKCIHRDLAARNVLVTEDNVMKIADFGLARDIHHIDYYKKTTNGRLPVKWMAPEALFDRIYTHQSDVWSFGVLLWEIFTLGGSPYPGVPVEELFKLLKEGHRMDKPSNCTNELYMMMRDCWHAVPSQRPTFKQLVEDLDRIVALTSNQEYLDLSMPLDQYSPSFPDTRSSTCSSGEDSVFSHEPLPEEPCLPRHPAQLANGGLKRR

| IC50 (Recombinant human FGFR1) [nM] | IC50 (Recombinant human FGFR2) [nM] | IC50 (FGFR3 kinase) [nM] | IC50 (SNU-16) [nM] | SMILES | IC50 (KG-1) [nM] |
| --- | --- | --- | --- | --- | --- |
| 13 | 12 | 47 | 56 | CCN1CCN(c2ccc(Nc3ncc(CCc4cc(C(=O)NOC)cc5occc45)cn3)cc2)CC1 [Compound 5] | 24 |
| 12 | 6 | 8 | 3 | CONC(=O)c1cc(CCc2cnc(Nc3cccc(N4C[C@@H](C)N[C@@H](C)C4)c3)nc2)cc(OC)c1 [Compound 18] | 77 |
| 132 | 34 | 61 | 113 | CCN1CCN(c2ccc(Nc3ncc(CCc4cc(OC)cc(C(=O)NC5CC5)c4)cn3)cc2)CC1 [Compound 46] | 59 |
| 43 | 34 | 128 | 340 | CCN1CCN(c2ccc(Nc3ncc(CCc4cc(OC)cc(C(=O)NOCCO)c4)cn3)cc2)CC1 [Compound 20, 3-(2-(2-((4-(4-ethylpiperazin-1-yl)phenyl)amino)pyrimidin-5-yl)ethyl)-N-(2-hydroxyethoxy)-5-methoxybenzamide] | 589 |
| 4 | 4 | 9 | 17 | CCN1CCN(c2ccc(Nc3ncc(CCc4cc(C(=O)NC)cc(OC)c4Cl)cn3)cc2)CC1 [Compound 56] | 7 |
| 63 | 44 | 119 | 150 | CNC(=O)c1cc(CCc2cnc(Nc3ccc4nnnn4c3)nc2)c(F)c(OC)c1 [Compound 96] | 161 |
| 4 | 6 | 9 | 24 | CONC(=O)c1cc(CCc2cnc(Nc3ccc(N4C[C@@H](C)N[C@@H](C)C4)cc3)nc2)cc(OC)c1 [Compound 41] | 38 |
| 1 | 2 | 5 | 5 | CCN1CCN(c2ccc(Nc3ncc(CCc4cc(C(=O)NOC)cc(OC)c4C)cn3)cc2)CC1 [Compound 52] | 4 |
| 2 | 4 | 8 | 15 | CCN1CCN(c2ccc(Nc3ncc(CCc4cc(OC)cc(C(=O)NOC)c4)cn3)cn2)CC1 [Compound 42] | 11 |
| 12 | 8 | 16 | 17 | CCN1CCN(c2ccc(Nc3ncc(/C=C/c4cc(OC)cc(C(=O)NOC)c4)cn3)cc2)CC1 [Compound 16] | 13 |
| 3 | 2 | 7 | 5 | CONC(=O)c1cc(CCc2cnc(Nc3cnn(C)c3)nc2)c(F)c(OC)c1 [Compound 29] | 5 |
| 3 | 4 | 4 | 7 | CCN1CCN(c2cccc(Nc3ncc(CCc4cc(OC)cc(C(=O)NOC)c4)cn3)c2)CC1 [Compound 14, 3-(2-(2-((3-(4-ethylpiperazin-1-yl)phenyl)amino)pyrimidin-5-yl)ethyl)-N,5-dimethoxybenzamide] | 9 |
| 54 | 17 | 62 | 158 | CNC(=O)c1cc(CCc2cnc(Nc3ccnnc3)nc2)c(F)c(OC)c1 [Compound 61] | 400 |
| 5 | 5 | 15 | 16 | CCN1CCN(c2ccc(Nc3ncc(CCc4cc(OC)cc(C(=O)NOC)c4)cn3)cc2)C[C@H]1C [Compound 48] | 11 |
| 4 | 6 | 9 | 12 | CCN1CCN(c2ccc(Nc3ncc(CCc4cc(OC)cc(C(=O)NOC)c4)cn3)cc2)CC1 [Compound 17] | 9 |
| 10 | 7 | 35 | 33 | CONC(=O)c1cc(CCc2cnc(Nc3ccc(OC)cc3)nc2)cc(OC)c1 [Compound 106] | 40 |
| 48 | 18 | 146 | 89 | CONC(=O)c1cc(CCc2cnc(Nc3ccc(Cl)cc3)nc2)cc(OC)c1 [Compound 113] | 148 |
| 5 | 3 | 4 | 12 | CCN1CCN(c2cc(F)cc(Nc3ncc(CCc4cc(OC)cc(C(=O)NOC)c4)cn3)c2)CC1 [Compound 77] | 11 |
| 38 | 28 | 64 | 44 | CCN1CCN(c2cccc(Nc3ncc(CCc4cc(OC)cc(C(=O)NC)c4)cn3)c2)CC1 [Compound 9, 3-(2-(2-((3-(4-ethylpiperazin-1-yl)phenyl)amino)pyrimidin-5-yl)ethyl)-5-methoxy-N-methylbenzamide] | 98 |
| 8 | 9 | 14 | 32 | CCN1CCN(c2ccc(Nc3ncc(CCc4cc(C(=O)NC5CC5)cc(OC)c4F)cn3)cc2)CC1 [Compound 57] | 16 |
